The subject of experiment [1] is mechanical nociceptive threshold. Particulars: injected intradermally (Khasar et al., 1999b); cited from earlier work.
The test system is the same in experiment [2]. Put plainly: Epinephrine-induced hyperalgesia in gonad-intact and gonadectomized male and female rats (Example 2). Particulars: for absolute decrease in threshold after epinephrine: n=18.
Procedure: The nociceptive flexion reflex was quantified using the Randall-Selitto paw pressure device (Analgesymeter, Stoetling, Chicago, Ill., USA), which applies a linearly increasing mechanical force to the dorsum of the rat's hind paw. The mechanical nociceptive threshold was defined as the force in grams at which the rat withdrew its paw. […] Baseline paw-withdrawal threshold was defined as the mean of six readings before test agents were injected. […] Each group of rats was treated with only one agonist and/or antagonist injected peripherally by the intradermal route. […] All behavioural testing was done between 10.00 and 16.00 h. […] The protein kinase inhibitor was separated from the distilled water by drawing up a small air bubble (<1 μL) into the syringe after drawing up the protein kinase inhibitor but before drawing up the distilled water.
A stock solution of PGE2 (4 mg/mL) was made by dissolving it in 10% ethanol in normal saline; further dilution to 100 ng was made by addition of saline. Final concentration of ethanol was <10%. […] Stock solutions (1 μg/μL) of inhibitors were stored at −20° C. […] Inhibitors were injected at a concentration of 1 μg/2.5 μL.
Experiment [3] shares this test system. Particulars: epinephrine 100 ng, 3.82 and 4.54 N/mm^2.
Experiment [4] shares this test system. The experiment can be described thus: Epinephrine-induced mechanical hyperalgesia, Randall-Selitto paw-withdrawal test (Example 1). Particulars: rat, in vivo.
Source text: The nociceptive flexion reflex (Randall-Selitto paw-withdrawal test) was quantified with a Basile Analge-symeter (Stoelting, Chicago, Ill.), which applies a linearly increasing mechanical force to the dorsum of the rat's hindpaw. The mechanical nociceptive threshold was defined as the force in grams at which the rat withdrew its paw. […] They were allowed to crawl into individual cylindrical Perspex blocks and were lightly restrained there by closing both ends of the cylinder. […] The rats were allowed to acclimatize to the restrainer for 5-10 min, after which the hindpaws were exposed to the test stimulus. Three readings were taken at 5 min intervals, and their mean was considered the baseline threshold. After each drug administration, mechanical paw-withdrawal thresholds were determined again as the mean of three readings taken 20, 25, and 30 min after injection.
Inhibitors were diluted with distilled water before intra-dermal injections into the paw using a 10 μl microsyringe (Hamilton, Reno, Nev.). Injections of peptides (1 μg/2.5 μl) were always preceded by injection of distilled water (2.5 μl) to produce hypo-osmotic shock. […] Paw-withdrawal thresholds were measured again 10, 15, and 20 min after injecting the test agent. The mean of the paw-withdrawal thresholds obtained at these three times was then taken as the mechanical nociceptive threshold at the dose of the test agent used. The effect of each dose a test agent was calculated as the percentage change from baseline.
The test system is the same in experiment [5]. Particulars: dose-response studies (Khasar et al., 1999b); cited from earlier work.
The test system of another experiment is ERK1/2. Put plainly: Epinephrine-stimulated ERK1/2 phosphorylation in cultured rat DRG neurons (Western analysis). Format: cell-based.

This is an account of results in US20030008807A1, “Novel signaling pathway for the production of inflammatory pain and neuropathy” (The Regents of the University of California, priority 2001, published 2003).

Procedure for ERK1/2: Trypsin was inactivated by adding 100 μg/ml soybean trypsin inhibitor and 2.5 mg/ml MgSO4. The cells were centrifuged at 300×g for 5 min and resuspended culture media containing minimal essential medium (MEM) supplemented with 10% heat-inactivated fetal calf serum, 1×MEM vitamins, and 1000 U/ml each of penicillin and streptomycin. The culture was enriched for neurons by preplating on 100 mm culture dishes pretreated with 0.1 mg/ml poly-DL-ornithine in 15 mM sodium borate buffer. After culture for 15-20 hr, the loosely attached neuronal cells were collected and plated for 3 hr on six-well plates coated with 0.1 mg/ml poly-DL-ornithine and 1 mg/ml laminin.
After drug treatment, cells from neuron-enriched DRG cultures were collected and centrifuged at 300×g for 5 min at 4° C. […] Blots were incubated with anti-phospho-p42/44 MAP kinase antibody (diluted 1:500 in blocking buffer) overnight at 4° C. Blots were rinsed three times in PBS-T and incubated in blocking buffer containing HRP-conjugated goat anti-rabbit IgG (diluted 1:1000; Boehringer Mannheim, Indianapolis, Ind.) for 1 hr at 27° C. Immunoreactive bands were visualized by enhanced chemiluminescence (Amersham Pharmacia Biotech, Piscataway, N.J.). The membranes were then stripped of antibodies by incubation in 200 mM NaOH for 20 min at 27° C. […] After three washes in PBS-T, blots were incubated with HRP-conjugated goat anti-rabbit IgG (diluted 1:1000; Boehringer Mannheim) for 1 hr at 27° C., and immunoreactive bands were visualized by enhanced chemiluminescence and autoradiography. […] Data were normalized by dividing values obtained for phospho-ERK1 and phospho-ERK2 immunoreactivity by the value obtained for total ERK1 immunoreactivity for each sample.

For the compound `CNC[C@H](O)c1ccc(O)c(O)c1` [epinephrine], the “ED50 for lowering the nociceptive threshold” value in experiment [1] is listed as approximately 20 ng. In addition, the “change in mechanical nociceptive threshold over dose range” value in experiment [2] (epinephrine 1-1000 ng intradermal, normal male and female rats) was “dose-dependent decrease”. Also, the “decrease in threshold after epinephrine, gonadectomized vs gonad-intact” value in experiment [2] (female rats, epinephrine 100 ng) is “greater”. Besides, in experiment [2] (female rats), the “absolute decrease in threshold after epinephrine” value came to 72.7 ± 0.9 g. Moreover, in experiment [2] (male rats, epinephrine 100 ng), the “decrease in paw-withdrawal threshold produced by epinephrine, gonadectomized vs gonad-intact” value is recorded as “no significant difference”. Further, in experiment [2] (male rats), the “absolute decrease in threshold after epinephrine” value stood at 63.7 ± 0.9 g. Moreover, the “response to VFH stimulation, wild-type vs PKCε mutant” value in experiment [3] (female mice) is “similar”. The “epinephrine-induced change in nociceptive response in PKCε-null vs wild-type” value in experiment [3] (male mice) is given as “significantly less”. Also, in experiment [4], the “decrease in mechanical nociceptive thresholds” value is approximately 35%. Moreover, the “dose producing maximal hyperalgesia” value in experiment [5] is 100 ng. Besides, in the experiment on ERK1/2, the “ERK1/2 phosphorylation (representative Western blot)” value is on record as “stimulation”, the “concentration at which effect on ERK phosphorylation appeared maximal” value came out at 1 µM, the “increase of phospho-ERK immunoreactivity over basal level” value is approximately 1.7 fold and the “time after which ERK phosphorylation returned to basal levels” value came out at 60 min. Moreover, the “time at which epinephrine-evoked ERK phosphorylation was greatest” value in the experiment with ERK1/2 is reported as 5 min. In addition, the Emax with ERK1/2 (Rattus norvegicus, DRG neuron, 5 min, read-out: maximal response relative to response to NGF) was 30 to 50%.
